# Patent publication US9809578B2, “Pyrazolyl urea, thiourea, guanidine and cyanoguanidine compounds as trkA kinase inhibitors” (Array BioPharma Inc., priority 2012, dated 2017)
# Assays:
# Ron = target: T1, Ron (Homo sapiens, UniProt Q04912); test: KinaseProfiler Ron; type: biochemical; details: 10 μM, ATP near Km
# T1 construct: purchased Millipore, Inc. (KinaseProfiler service)
# Description: (§1) The compound was run in duplicate at a concentration of ATP near the Km for each individual kinase according to Millipore's specifications.
# NEK11 = target: T2, NEK11 (Homo sapiens, UniProt Q8NG66); test: KinaseProfiler NEK11; type: biochemical; details: 10 μM, ATP near Km
# T2 construct: purchased Millipore, Inc. (KinaseProfiler service)
# Description: as §1
# PKCbetaII = target: T3, PKCbetaII (Homo sapiens, UniProt P05771); test: KinaseProfiler PKCbetaII; type: biochemical; details: 10 μM, ATP near Km
# T3 construct: purchased Millipore, Inc. (KinaseProfiler service)
# Description: as §1
# PAK2 = target: T4, PAK2 (Homo sapiens, UniProt Q13177); test: KinaseProfiler PAK2; type: biochemical; details: 10 μM, ATP near Km
# T4 construct: purchased Millipore, Inc. (KinaseProfiler service)
# Description: as §1
# PAK6 = target: T5, PAK6 (Homo sapiens, UniProt Q9NQU5); test: KinaseProfiler PAK6; type: biochemical; details: 10 μM, ATP near Km
# T5 construct: purchased Millipore, Inc. (KinaseProfiler service)
# Description: as §1
# CHK1 = target: T6, CHK1 (Homo sapiens, UniProt O14757); test: KinaseProfiler CHK1; type: biochemical; details: 10 μM, ATP near Km
# T6 construct: purchased Millipore, Inc. (KinaseProfiler service)
# Description: as §1
# ROCK-II = target: T7, ROCK-II (Homo sapiens, UniProt O75116); test: KinaseProfiler ROCK-II; type: biochemical; details: 10 μM, ATP near Km
# T7 construct: purchased Millipore, Inc. (KinaseProfiler service)
# Description: as §1
# JAK2 = target: T8, JAK2 (Homo sapiens, UniProt O60674); test: KinaseProfiler JAK2; type: biochemical; details: 10 μM, ATP near Km
# T8 construct: purchased Millipore, Inc. (KinaseProfiler service)
# Description: as §1
# CAMK1 = target: T9, CAMK1 (Homo sapiens, UniProt Q14012); test: KinaseProfiler CAMK1; type: biochemical; details: 10 μM, ATP near Km
# T9 construct: purchased Millipore (KinaseProfiler service)
# Description: as §1
# MKK7beta = target: T10, MKK7beta (Homo sapiens, UniProt O14733); test: KinaseProfiler MKK7beta; type: biochemical; details: 10 μM, ATP near Km
# T10 construct: purchased Millipore, Inc. (KinaseProfiler service)
# Description: as §1
# NEK6 = target: T11, NEK6 (Homo sapiens, UniProt Q9HC98); test: KinaseProfiler NEK6; type: biochemical; details: 10 μM, ATP near Km
# T11 construct: purchased Millipore, Inc. (KinaseProfiler service)
# Description: as §1
# TBK1 = target: T12, TBK1 (Homo sapiens, UniProt Q9UHD2); test: KinaseProfiler TBK1; type: biochemical; details: 10 μM, ATP near Km
# T12 construct: purchased Millipore, Inc. (KinaseProfiler service)
# Description: as §1
# eEF-2K = target: T13, eEF-2K (Homo sapiens, UniProt O00418); test: KinaseProfiler eEF-2K; type: biochemical; details: 10 μM, ATP near Km
# T13 construct: purchased Millipore, Inc. (KinaseProfiler service)
# Description: as §1
# ULK3 = target: T14, ULK3 (Homo sapiens, UniProt Q6PHR2); test: KinaseProfiler ULK3; type: biochemical; details: 10 μM, ATP near Km
# T14 construct: purchased Millipore, Inc. (KinaseProfiler service)
# Description: as §1
# off-target kinases = details: 10 μM
# Description: as §1
# CDK5/p25 = target: T15, CDK5/p25 (Homo sapiens, UniProt Q00535); test: KinaseProfiler CDK5/p25; type: biochemical; details: 10 μM, ATP near Km
# T15 construct: purchased Millipore, Inc. (KinaseProfiler service)
# Description: as §1
# Plk2 = target: T16, Plk2 (Homo sapiens, UniProt Q9NYY3); test: KinaseProfiler Plk2; type: biochemical; details: 10 μM, ATP near Km
# T16 construct: purchased Millipore, Inc. (KinaseProfiler service)
# Description: as §1
# PhKgamma2 = target: T17, PhKgamma2 (Homo sapiens, UniProt P15735); test: KinaseProfiler PhKgamma2; type: biochemical; details: 10 μM, ATP near Km
# T17 construct: purchased Millipore, Inc. (KinaseProfiler service)
# Description: as §1
# PKCepsilon = target: T18, PKCepsilon (Homo sapiens, UniProt Q02156); test: KinaseProfiler PKCepsilon; type: biochemical; details: 10 μM, ATP near Km
# T18 construct: purchased Millipore, Inc. (KinaseProfiler service)
# Description: as §1
# CK2 = target: T19, CK2 (Homo sapiens, UniProt P68400); test: KinaseProfiler CK2; type: biochemical; details: 10 μM, ATP near Km
# T19 construct: purchased Millipore, Inc. (KinaseProfiler service)
# Description: as §1
# PrKX = target: T20, PrKX (Homo sapiens, UniProt P51817); test: KinaseProfiler PrKX; type: biochemical; details: 10 μM, ATP near Km
# T20 construct: purchased Millipore, Inc. (KinaseProfiler service)
# Description: as §1
# GRK7 = target: T21, GRK7 (Homo sapiens, UniProt Q8WTQ7); test: KinaseProfiler GRK7; type: biochemical; details: 10 μM, ATP near Km
# T21 construct: purchased Millipore, Inc. (KinaseProfiler service)
# Description: as §1
# PKCeta = target: T22, PKCeta (Homo sapiens, UniProt P24723); test: KinaseProfiler PKCeta; type: biochemical; details: 10 μM, ATP near Km
# T22 construct: purchased Millipore, Inc. (KinaseProfiler service)
# Description: as §1
# GSK3beta = target: T23, GSK3beta (Homo sapiens, UniProt P49841); test: KinaseProfiler GSK3beta; type: biochemical; details: 10 μM, ATP near Km
# T23 construct: purchased Millipore, Inc. (KinaseProfiler service)
# Description: as §1
# WNK2 = target: T24, WNK2 (Homo sapiens, UniProt Q9Y3S1); test: KinaseProfiler WNK2; type: biochemical; details: 10 μM, ATP near Km
# T24 construct: purchased Millipore, Inc. (KinaseProfiler service)
# Description: as §1
# TSSK1 = target: T25, TSSK1 (Homo sapiens, UniProt Q9BXA7); test: KinaseProfiler TSSK1; type: biochemical; details: 10 μM, ATP near Km
# T25 construct: purchased Millipore, Inc. (KinaseProfiler service)
# Description: as §1
# MRCKalpha = target: T26, MRCKalpha (Homo sapiens, UniProt Q5VT25); test: KinaseProfiler MRCKalpha; type: biochemical; details: 10 μM, ATP near Km
# T26 construct: purchased Millipore, Inc. (KinaseProfiler service)
# Description: as §1
# Haspin = target: T27, Haspin (Homo sapiens, UniProt Q8TF76); test: KinaseProfiler Haspin; type: biochemical; details: 10 μM, ATP near Km
# T27 construct: purchased Millipore, Inc. (KinaseProfiler service)
# Description: as §1
# PKCbetaI = target: T28, PKCbetaI (Homo sapiens, UniProt P05771); test: KinaseProfiler PKCbetaI; type: biochemical; details: 10 μM, ATP near Km
# T28 construct: purchased Millipore, Inc. (KinaseProfiler service)
# Description: as §1
# MAPKAP-K3 = target: T29, MAPKAP-K3 (Homo sapiens, UniProt Q16644); test: KinaseProfiler MAPKAP-K3; type: biochemical; details: 10 μM, ATP near Km
# T29 construct: purchased Millipore, Inc. (KinaseProfiler service)
# Description: as §1
# MYLK = target: T30, MYLK (Homo sapiens, UniProt Q15746); test: KinaseProfiler MYLK; type: biochemical; details: 10 μM, ATP near Km
# T30 construct: purchased Millipore, Inc. (KinaseProfiler service)
# Description: as §1
# LIMK1 = target: T31, LIMK1 (Homo sapiens, UniProt P53667); test: KinaseProfiler LIMK1; type: biochemical; details: 10 μM, ATP near Km
# T31 construct: purchased Millipore, Inc. (KinaseProfiler service)
# Description: as §1
# Mer = target: T32, Mer (Homo sapiens, UniProt Q12866); test: KinaseProfiler Mer; type: biochemical; details: 10 μM, ATP near Km
# T32 construct: purchased Millipore, Inc. (KinaseProfiler service)
# Description: as §1
# AMPK(A1/B1/G1) = target: T33, AMPK(A1/B1/G1) (Homo sapiens, UniProt Q13131); test: KinaseProfiler AMPK(A1/B1/G1); type: biochemical; details: 10 μM, ATP near Km
# T33 construct: purchased Millipore (KinaseProfiler service)
# Description: as §1
# Lyn = target: T34, Lyn (Homo sapiens, UniProt P07948); test: KinaseProfiler Lyn; type: biochemical; details: 10 μM, ATP near Km
# T34 construct: purchased Millipore, Inc. (KinaseProfiler service)
# Description: as §1
# DAPK2 = target: T35, DAPK2 (Homo sapiens, UniProt Q9UIK4); test: KinaseProfiler DAPK2; type: biochemical; details: 10 μM, ATP near Km
# T35 construct: purchased Millipore, Inc. (KinaseProfiler service)
# Description: as §1
# EphA2 = target: T36, EphA2 (Homo sapiens, UniProt P29317); test: KinaseProfiler EphA2; type: biochemical; details: 10 μM, ATP near Km
# T36 construct: purchased Millipore, Inc. (KinaseProfiler service)
# Description: as §1
# STK33 = target: T37, STK33 (Homo sapiens, UniProt Q9BYT3); test: KinaseProfiler STK33; type: biochemical; details: 10 μM, ATP near Km
# T37 construct: purchased Millipore, Inc. (KinaseProfiler service)
# Description: as §1
# ROCK-I = target: T38, ROCK-I (Homo sapiens, UniProt Q13464); test: KinaseProfiler ROCK-I; type: biochemical; details: 10 μM, ATP near Km
# T38 construct: purchased Millipore, Inc. (KinaseProfiler service)
# Description: as §1
# p70S6K = target: T39, p70S6K (Homo sapiens, UniProt P23443); test: KinaseProfiler p70S6K; type: biochemical; details: 10 μM, ATP near Km
# T39 construct: purchased Millipore, Inc. (KinaseProfiler service)
# Description: as §1
# SRPK2 = target: T40, SRPK2 (Homo sapiens, UniProt P78362); test: KinaseProfiler SRPK2; type: biochemical; details: 10 μM, ATP near Km
# T40 construct: purchased Millipore, Inc. (KinaseProfiler service)
# Description: as §1
# RIPK2 = target: T41, RIPK2 (Homo sapiens, UniProt O43353); test: KinaseProfiler RIPK2; type: biochemical; details: 10 μM, ATP near Km
# T41 construct: purchased Millipore, Inc. (KinaseProfiler service)
# Description: as §1
# FAK = target: T42, FAK (Homo sapiens, UniProt Q05397); test: KinaseProfiler FAK; type: biochemical; details: 10 μM, ATP near Km
# T42 construct: purchased Millipore, Inc. (KinaseProfiler service)
# Description: as §1
# T24 sequence (Q9Y3S1 whole entry): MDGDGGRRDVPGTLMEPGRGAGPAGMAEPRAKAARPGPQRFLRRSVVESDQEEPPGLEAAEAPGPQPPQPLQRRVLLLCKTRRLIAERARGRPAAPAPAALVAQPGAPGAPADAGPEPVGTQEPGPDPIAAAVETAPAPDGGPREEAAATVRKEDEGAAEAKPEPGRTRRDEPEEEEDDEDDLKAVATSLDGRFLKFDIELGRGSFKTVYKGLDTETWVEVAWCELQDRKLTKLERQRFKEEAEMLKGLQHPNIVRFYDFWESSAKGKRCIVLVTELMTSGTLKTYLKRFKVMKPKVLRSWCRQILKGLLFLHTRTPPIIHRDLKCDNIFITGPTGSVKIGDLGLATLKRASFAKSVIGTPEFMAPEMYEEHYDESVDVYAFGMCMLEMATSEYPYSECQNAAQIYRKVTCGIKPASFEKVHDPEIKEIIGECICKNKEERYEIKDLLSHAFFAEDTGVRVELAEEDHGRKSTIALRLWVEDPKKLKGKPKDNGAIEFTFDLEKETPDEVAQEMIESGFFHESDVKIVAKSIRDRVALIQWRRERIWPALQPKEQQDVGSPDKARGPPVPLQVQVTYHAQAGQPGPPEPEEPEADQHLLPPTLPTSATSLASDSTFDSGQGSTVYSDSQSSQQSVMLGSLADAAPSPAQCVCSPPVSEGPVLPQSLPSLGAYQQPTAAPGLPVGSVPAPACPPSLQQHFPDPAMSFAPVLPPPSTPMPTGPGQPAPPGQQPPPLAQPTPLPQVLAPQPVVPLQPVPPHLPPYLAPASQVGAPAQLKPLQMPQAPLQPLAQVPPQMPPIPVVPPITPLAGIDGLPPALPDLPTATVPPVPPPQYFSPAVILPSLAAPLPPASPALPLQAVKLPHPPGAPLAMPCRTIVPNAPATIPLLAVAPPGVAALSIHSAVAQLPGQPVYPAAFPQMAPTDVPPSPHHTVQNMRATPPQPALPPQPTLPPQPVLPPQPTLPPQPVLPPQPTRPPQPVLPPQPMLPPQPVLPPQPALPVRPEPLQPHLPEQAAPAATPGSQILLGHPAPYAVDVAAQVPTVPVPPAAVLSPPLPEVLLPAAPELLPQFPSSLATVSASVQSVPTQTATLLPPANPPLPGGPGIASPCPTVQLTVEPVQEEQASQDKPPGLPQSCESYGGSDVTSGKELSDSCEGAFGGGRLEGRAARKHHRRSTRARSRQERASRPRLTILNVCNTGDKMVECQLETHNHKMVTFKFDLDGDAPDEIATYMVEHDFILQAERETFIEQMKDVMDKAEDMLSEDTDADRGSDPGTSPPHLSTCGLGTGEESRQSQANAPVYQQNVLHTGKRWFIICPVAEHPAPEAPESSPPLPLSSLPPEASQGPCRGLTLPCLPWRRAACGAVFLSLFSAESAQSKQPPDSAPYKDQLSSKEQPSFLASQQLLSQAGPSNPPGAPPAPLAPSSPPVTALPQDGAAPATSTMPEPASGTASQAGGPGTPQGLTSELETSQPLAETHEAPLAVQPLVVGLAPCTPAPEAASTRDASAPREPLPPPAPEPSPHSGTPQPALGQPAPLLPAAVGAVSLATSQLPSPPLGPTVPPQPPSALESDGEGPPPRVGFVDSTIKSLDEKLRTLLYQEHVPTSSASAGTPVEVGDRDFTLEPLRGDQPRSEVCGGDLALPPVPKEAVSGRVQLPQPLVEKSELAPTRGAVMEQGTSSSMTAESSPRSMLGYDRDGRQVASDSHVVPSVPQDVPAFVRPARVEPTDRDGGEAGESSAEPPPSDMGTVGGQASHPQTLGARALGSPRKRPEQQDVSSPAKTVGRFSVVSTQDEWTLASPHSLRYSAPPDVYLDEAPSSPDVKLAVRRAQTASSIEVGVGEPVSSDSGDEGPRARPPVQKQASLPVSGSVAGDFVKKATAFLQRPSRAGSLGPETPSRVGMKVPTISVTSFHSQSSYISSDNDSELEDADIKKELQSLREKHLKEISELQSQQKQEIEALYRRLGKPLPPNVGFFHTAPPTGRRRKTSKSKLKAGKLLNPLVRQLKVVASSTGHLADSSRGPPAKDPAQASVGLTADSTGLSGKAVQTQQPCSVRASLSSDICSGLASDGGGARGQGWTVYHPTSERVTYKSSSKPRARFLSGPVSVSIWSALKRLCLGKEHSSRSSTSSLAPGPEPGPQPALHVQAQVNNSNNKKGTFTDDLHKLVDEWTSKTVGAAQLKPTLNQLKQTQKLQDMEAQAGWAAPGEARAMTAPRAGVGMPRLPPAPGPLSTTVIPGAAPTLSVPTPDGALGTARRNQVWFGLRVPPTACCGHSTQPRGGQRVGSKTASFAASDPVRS
# T6 sequence (O14757 whole entry): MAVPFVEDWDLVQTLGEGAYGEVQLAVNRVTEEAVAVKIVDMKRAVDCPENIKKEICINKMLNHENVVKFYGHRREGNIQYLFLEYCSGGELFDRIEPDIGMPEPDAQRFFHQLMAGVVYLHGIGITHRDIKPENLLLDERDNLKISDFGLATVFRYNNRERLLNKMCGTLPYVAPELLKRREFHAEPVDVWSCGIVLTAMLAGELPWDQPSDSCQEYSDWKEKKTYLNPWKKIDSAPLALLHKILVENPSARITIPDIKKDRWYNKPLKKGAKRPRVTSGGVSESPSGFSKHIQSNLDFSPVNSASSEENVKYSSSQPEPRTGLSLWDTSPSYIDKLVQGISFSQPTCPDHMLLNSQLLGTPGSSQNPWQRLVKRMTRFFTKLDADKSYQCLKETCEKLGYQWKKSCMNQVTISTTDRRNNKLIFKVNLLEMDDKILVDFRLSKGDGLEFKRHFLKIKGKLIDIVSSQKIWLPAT
# T25 sequence (Q9BXA7 whole entry): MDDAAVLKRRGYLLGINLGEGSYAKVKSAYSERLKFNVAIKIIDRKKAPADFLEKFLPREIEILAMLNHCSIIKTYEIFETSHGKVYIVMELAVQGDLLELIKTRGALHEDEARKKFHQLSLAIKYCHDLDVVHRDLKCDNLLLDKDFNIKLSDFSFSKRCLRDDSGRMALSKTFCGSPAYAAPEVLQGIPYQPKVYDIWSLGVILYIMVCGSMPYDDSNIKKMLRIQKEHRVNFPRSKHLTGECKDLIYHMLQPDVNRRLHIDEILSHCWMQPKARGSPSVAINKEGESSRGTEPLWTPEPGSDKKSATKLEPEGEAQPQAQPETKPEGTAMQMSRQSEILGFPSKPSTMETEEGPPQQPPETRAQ
# T40 sequence (P78362 whole entry): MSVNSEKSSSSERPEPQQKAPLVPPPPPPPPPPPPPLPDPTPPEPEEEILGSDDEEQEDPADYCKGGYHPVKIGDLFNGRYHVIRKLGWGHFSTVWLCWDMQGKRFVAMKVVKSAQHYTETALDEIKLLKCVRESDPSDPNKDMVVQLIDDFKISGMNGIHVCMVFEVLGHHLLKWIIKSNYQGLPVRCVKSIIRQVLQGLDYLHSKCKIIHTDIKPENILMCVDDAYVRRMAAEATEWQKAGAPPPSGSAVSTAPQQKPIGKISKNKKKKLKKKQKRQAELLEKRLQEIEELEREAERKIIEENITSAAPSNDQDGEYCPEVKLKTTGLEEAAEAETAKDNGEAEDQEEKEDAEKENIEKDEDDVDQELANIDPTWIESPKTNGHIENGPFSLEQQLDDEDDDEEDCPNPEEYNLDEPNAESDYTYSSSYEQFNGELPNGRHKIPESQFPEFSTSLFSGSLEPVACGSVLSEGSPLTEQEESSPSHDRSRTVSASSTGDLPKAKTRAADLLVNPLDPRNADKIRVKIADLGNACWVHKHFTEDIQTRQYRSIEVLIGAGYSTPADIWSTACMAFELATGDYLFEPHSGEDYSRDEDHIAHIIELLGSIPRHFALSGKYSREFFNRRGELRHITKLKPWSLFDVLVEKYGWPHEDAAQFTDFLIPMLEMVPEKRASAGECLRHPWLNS
# T34 sequence (P07948 whole entry): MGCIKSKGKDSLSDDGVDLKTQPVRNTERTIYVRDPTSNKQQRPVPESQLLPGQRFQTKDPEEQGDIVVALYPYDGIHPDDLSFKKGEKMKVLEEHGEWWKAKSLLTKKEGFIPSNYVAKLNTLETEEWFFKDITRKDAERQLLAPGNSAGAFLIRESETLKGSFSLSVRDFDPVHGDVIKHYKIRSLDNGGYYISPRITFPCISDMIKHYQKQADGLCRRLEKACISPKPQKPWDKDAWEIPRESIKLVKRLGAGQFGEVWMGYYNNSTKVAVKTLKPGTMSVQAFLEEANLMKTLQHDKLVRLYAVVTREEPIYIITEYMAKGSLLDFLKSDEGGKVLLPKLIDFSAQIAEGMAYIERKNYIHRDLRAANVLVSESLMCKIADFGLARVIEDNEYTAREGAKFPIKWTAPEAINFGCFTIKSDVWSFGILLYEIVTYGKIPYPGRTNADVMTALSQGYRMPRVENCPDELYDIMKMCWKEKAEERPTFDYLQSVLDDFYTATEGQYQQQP
# T39 sequence (P23443 whole entry): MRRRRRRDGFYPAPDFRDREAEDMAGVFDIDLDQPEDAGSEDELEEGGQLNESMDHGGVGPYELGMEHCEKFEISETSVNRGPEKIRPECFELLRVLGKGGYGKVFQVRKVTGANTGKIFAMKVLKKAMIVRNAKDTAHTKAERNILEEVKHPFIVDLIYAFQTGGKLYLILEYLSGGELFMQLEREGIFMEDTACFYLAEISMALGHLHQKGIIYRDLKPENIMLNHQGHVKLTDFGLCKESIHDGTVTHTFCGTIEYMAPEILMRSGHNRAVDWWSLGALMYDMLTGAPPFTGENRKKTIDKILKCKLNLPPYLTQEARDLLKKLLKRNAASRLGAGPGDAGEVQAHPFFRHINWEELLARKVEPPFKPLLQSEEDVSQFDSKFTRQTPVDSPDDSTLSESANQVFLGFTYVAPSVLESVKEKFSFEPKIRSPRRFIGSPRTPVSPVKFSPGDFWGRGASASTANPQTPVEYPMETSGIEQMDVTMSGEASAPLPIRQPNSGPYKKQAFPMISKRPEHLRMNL
compound,measurement,setting,value
"Cc1c(-c2cnn(C)c2)nn(-c2ccccc2)c1NC(=O)Nc1cc(C(F)(F)F)nn1-c1ccccc1 [Example 3, 1-(1′,4-dimethyl-1-phenyl-1H,1′H-[3,4′-bipyrazol]-5-yl)-3-(1-phenyl-3-(trifluoromethyl)-1H-pyrazol-5-yl)urea]",Avg POC,Ron,90.5 POC
same,Avg POC,NEK11,110 POC
same,Avg POC,PKCbetaII,96.5 POC
same,Avg POC,PAK2,98 POC
same,Avg POC,PAK6,167 POC
same,Avg POC,CHK1,108 POC
same,Avg POC,ROCK-II,110 POC
same,Avg POC,JAK2,136.5 POC
same,Avg POC,CAMK1,103.5 POC
same,Avg POC,MKK7beta,143.5 POC
same,Avg POC,NEK6,125 POC
same,Avg POC,TBK1,103 POC
same,Avg POC,eEF-2K,148.5 POC
same,Avg POC,ULK3,90.5 POC
same,activity against off-target kinases,off-target kinases,largely inactive
same,Avg POC,CDK5/p25,108.5 POC
same,Avg POC,Plk2,106 POC
same,Avg POC,PhKgamma2,115.5 POC
same,Avg POC,PKCepsilon,98 POC
same,Avg POC,CK2,96.5 POC
same,Avg POC,PrKX,188 POC
same,Avg POC,GRK7,104.5 POC
same,Avg POC,PKCeta,94.5 POC
same,Avg POC,GSK3beta,195 POC
same,Avg POC,WNK2,120 POC
same,Avg POC,TSSK1,83.5 POC
same,Avg POC,MRCKalpha,172.5 POC
same,Avg POC,Haspin,121 POC
same,Avg POC,PKCbetaI,87 POC
same,Avg POC,MAPKAP-K3,128.5 POC
same,Avg POC,MYLK,122 POC
same,Avg POC,LIMK1,92 POC
same,Avg POC,Mer,104.5 POC
same,Avg POC,AMPK(A1/B1/G1),149.5 POC
same,Avg POC,Lyn,98 POC
same,Avg POC,DAPK2,106 POC
same,Avg POC,EphA2,120 POC
same,Avg POC,STK33,107.5 POC
same,Avg POC,ROCK-I,115 POC
same,Avg POC,p70S6K,273.5 POC
same,Avg POC,SRPK2,112.5 POC
same,Avg POC,RIPK2,96.5 POC
same,Avg POC,FAK,105.5 POC
